According to the supplement of paper PMC10307832:

What was measured:
Experiment in all cases: relative viability (nuclei count vs DMSO), 5 days (fraction); higher = more cells survive
[1] = compound: C1CNCCC1C2=CC(=NN2)C3=CC=NC=C3 + CCNC(=O)c1noc(-c2cc(C(C)C)c(O)cc2O)c1-c1ccc(CN2CCOCC2)cc1 [Luminespib] (partner 0.01 µM)
Outline: (§1)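 For relative viability, nuclei counts in treated wells were divided by those in vehicle wells. Lung cancer cell lines had been pin-tool dosed in 1536-well plates the day after seeding and cultured for 5 days, then fixed and stained in one step (final 0.05% Triton X-100, 1% formaldehyde, 1 ug/ml Hoechst) and imaged at 4×. Doses were one drug alone or a fixed anchor-drug dose plus five library-drug doses (not always all listed) in √10 steps, and values are duplicate-plate medians.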

[2] = compound: C[C@@H](N)c1ccc(C(=O)Nc2ccnc3[nH]ccc23)cc1 + O=C(CCCCCCC(=O)Nc1ccccc1)NO [Vorinostat] (partner 1 µM)
Outline: as §1

Tanzisertib + Pictilisib = compound: O[C@H]1CC[C@H](Nc2ncc3nc(Nc4c(F)cc(F)cc4F)n([C@H]4CCOC4)c3n2)CC1 [Tanzisertib] + CS(=O)(=O)N1CCN(Cc2cc3nc(-c4cccc5[nH]ncc45)nc(N4CCOCC4)c3s2)CC1 [Pictilisib] (partner 1 µM)
Outline: as §1

Tanzisertib + Vorinostat = compound: O[C@H]1CC[C@H](Nc2ncc3nc(Nc4c(F)cc(F)cc4F)n([C@H]4CCOC4)c3n2)CC1 [Tanzisertib] + O=C(CCCCCCC(=O)Nc1ccccc1)NO [Vorinostat] (partner 1 µM)
Outline: as §1

Cell Line | relative viability ([1]; first compound 0.08 µM) | relative viability ([1]; first compound 0.8 µM) | relative viability ([1]; first compound 2.53 µM) | relative viability ([1]; first compound 8 µM) | relative viability ([2]; first compound 0.04 µM) | relative viability ([2]; first compound 0.1265 µM) | relative viability ([2]; first compound 0.4 µM) | relative viability ([2]; first compound 4 µM) | relative viability (Tanzisertib + Pictilisib; first compound 0.08 µM) | relative viability (Tanzisertib + Pictilisib; first compound 0.253 µM) | relative viability (Tanzisertib + Pictilisib; first compound 0.8 µM) | relative viability (Tanzisertib + Pictilisib; first compound 2.53 µM) | relative viability (Tanzisertib + Pictilisib; first compound 8 µM) | relative viability (Tanzisertib + Vorinostat; first compound 0.08 µM) | relative viability (Tanzisertib + Vorinostat; first compound 0.253 µM) | relative viability (Tanzisertib + Vorinostat; first compound 0.8 µM) | relative viability (Tanzisertib + Vorinostat; first compound 2.53 µM) | relative viability (Tanzisertib + Vorinostat; first compound 8 µM) | relative viability ([2]; first compound 1.265 µM)
NCI-H1793 | 0.197 | 0.169 | 0.182 | 0.186 | 0.894 | 0.905 | 0.991 | 1.01 | 0.378 | 0.234 | 0.377 | 0.251 | 0.317 | 0.787 | 0.789 | 0.748 | 0.641 | 0.551 | –
NCI-H1915 | 0.746 | 0.876 | 0.791 | 0.734 | – | 0.546 | 0.547 | 0.462 | 1.19 | 0.958 | 0.946 | 0.95 | 0.732 | 0.569 | 0.535 | 0.46 | 0.503 | 0.487 | –
NCI-H1944 | 0.665 | 0.691 | 0.81 | 0.693 | 0.56 | 0.553 | 0.616 | 0.582 | 0.364 | 0.344 | 0.351 | 0.331 | 0.336 | 0.607 | 0.562 | 0.633 | 0.611 | 0.533 | 0.491
NCI-H1975 | 0.166 | 0.214 | 0.193 | 0.254 | 0.734 | 0.649 | 0.667 | 0.584 | 0.297 | 0.266 | 0.304 | 0.295 | 0.309 | 0.743 | 0.761 | 0.71 | 0.704 | 0.656 | 0.609
NCI-H1993 | 0.748 | 0.918 | 0.79 | 0.981 | 0.772 | 1.02 | – | 0.718 | 0.875 | 0.873 | 0.774 | 1.09 | 0.844 | 0.901 | 0.928 | 1.1 | 0.769 | 0.77 | 0.811
NCI-H2009 | 0.995 | 1.09 | 1.02 | 1.01 | 0.617 | 0.703 | 0.683 | 0.632 | 0.965 | 0.794 | 0.972 | 0.882 | 0.563 | 0.728 | 0.743 | 0.773 | 0.753 | 0.729 | 0.703
NCI-H2023 | 0.709 | 0.878 | 0.867 | 0.832 | 0.645 | 0.621 | 0.863 | 0.819 | 0.259 | 0.197 | 0.246 | 0.243 | 0.233 | 0.826 | 0.502 | 0.803 | 0.555 | 0.625 | –
NCI-H2085 | 0.412 | 0.38 | 0.498 | 0.435 | 0.77 | 0.705 | 0.806 | 0.706 | 0.474 | 0.454 | 0.465 | 0.478 | 0.435 | – | 0.801 | 0.917 | 0.828 | 0.879 | 0.667
NCI-H2087 | 0.145 | 0.178 | 0.281 | 0.254 | 0.659 | 0.58 | 0.466 | 0.549 | 1.17 | 0.838 | 0.886 | 0.753 | 0.743 | 0.862 | 0.701 | 0.772 | 0.797 | 1.14 | 0.593
NCI-H2126 | 0.813 | 0.975 | 0.959 | 0.917 | 1.02 | 0.685 | 0.738 | 0.916 | 0.522 | 0.464 | 0.503 | 0.494 | 0.52 | 0.86 | 0.758 | 0.85 | 0.727 | 0.454 | 0.432
NCI-H2170 | 0.534 | 0.739 | 0.737 | 0.567 | 0.854 | 0.886 | 0.902 | 0.846 | 0.357 | 0.307 | 0.313 | 0.307 | 0.27 | 0.806 | 0.864 | 0.874 | 0.82 | 0.705 | 0.771
NCI-H2228 | 0.121 | 0.162 | 0.189 | 0.161 | 0.832 | 0.576 | 0.638 | 0.56 | 0.499 | 0.444 | 0.32 | 0.291 | 0.367 | 1.03 | 0.626 | 0.777 | 0.728 | 0.518 | 0.976
NCI-H2347 | 0.366 | 0.5 | 0.511 | 0.564 | 0.762 | 0.508 | 0.554 | 0.676 | 0.781 | 0.444 | 0.501 | 0.478 | 0.715 | 0.744 | 0.628 | 0.696 | 0.588 | 0.463 | 0.559
NCI-H2405 | 0.616 | 0.584 | 0.875 | 0.544 | – | 1.09 | 1.02 | 0.404 | 0.438 | 0.422 | 0.49 | 0.421 | 0.323 | 1.04 | 1.19 | 1.14 | 1.17 | 0.404 | 0.699
NCI-H3122 | 0.109 | 0.114 | 0.1 | 0.104 | 1.04 | 1.04 | 1.02 | 1.29 | 0.655 | 0.591 | 0.587 | 0.572 | 0.743 | 1.37 | 1.09 | 0.932 | 1.09 | 1.12 | 1.03
PC-3 [JPC-3] | 0.643 | 0.673 | 0.7 | 0.556 | 0.803 | 0.77 | 0.85 | 0.725 | 0.741 | 0.823 | 0.688 | 0.673 | 0.577 | 0.835 | 1.18 | 1.04 | 0.748 | 0.445 | 0.836
PC-14 | 0.151 | 0.162 | 0.18 | 0.151 | 0.714 | 0.878 | 0.851 | 0.683 | 0.778 | 0.594 | 0.799 | 0.693 | 0.203 | 0.75 | 0.735 | 0.701 | 0.627 | 0.357 | –
